Our source for the IC50 and melting point values is US7122554B2, “Carboline derivatives” (Lilly Icos LLC., priority 2001, dated 2006).

The target in data set [1] is human recombinant PDE5 (Homo sapiens, UniProt O76074). The experiment in a line: Inhibitory effect on cGMP-PDE (PDE5 IC50, one-step assay). The class given is biochemical. The note with it: human recombinant PDE5, 0.15 μM 8-[H3]-cGMP, 30 minutes incubation. Here is the method: The compounds of structural formula (I) were tested for an ability to inhibit PDE5. The ability of a compound to inhibit PDE5 activity is related to the IC50 value for the compound, i.e., the concentration of inhibitor required for 50% inhibition of enzyme activity. The IC50 value for compounds of structural formula (I) were determined using recombinant human PDE5.
cGMP-PDE activity of compounds of the present invention was measured using a one-step assay adapted from Wells et al., Biochim. Biophys. Acta, 384, 430 (1975). The reaction medium contained 50 mM Tris-HCl, pH 7.5, 5 mM magnesium acetate, 250 μg/ml 5′-Nucleotidase, 1 mM EGTA, and 0.15 μM 8-[H^3]-cGMP. Unless otherwise indicated, the enzyme used was a human recombinant PDE5 (ICOS Corp., Bothell, Wash.).
Compounds of the invention were dissolved in DMSO finally present at 2% in the assay.

Take `COC(=O)CCCC(=O)N1CCc2c([nH]c3ccccc23)C1c1ccccc1` (stereo not drawn) [Example 20]: the IC50 in data set [1] is 1 nM.

`O=S(=O)(/C=C/c1ccccc1)N1CCc2c([nH]c3ccccc23)[C@H]1c1ccc2c(c1)OCO2` [Example 41b, (1R)-1-benzo[1,3]dioxol-5-yl-2-(2-phenylethenesulfonyl)-2,3,4,9-tetrahydro-1H-β-carboline] showed a melting point of 193 to 194 °C. The concentration for half-maximal inhibition (IC50) in data set [1] stood at 413 nM.

As for `Fc1ccccc1CNC(=S)N1CCc2c([nH]c3ccccc23)[C@H]1c1ccc2c(c1)OCO2` [Example 26], the half-inhibitory concentration (IC50) in data set [1] came to 40 nM.

As to `S=C(NCc1ccc2c(c1)OCO2)N1CCc2c([nH]c3ccccc23)[C@H]1c1ccc2c(c1)OCO2` [Example 40, (1R)-1-benzo-[1,3]dioxol-5-yl-1,3,4,9-tetrahydro-β-carboline-2-carbothioic acid (benzo[1,3]dioxol-5-yl-methyl)amide], the melting point was 97 to 100 °C. In data set [1], the half-maximal inhibitory concentration (IC50) is 56 nM.

In the case of `COc1ccc(C2c3[nH]c4ccccc4c3CCN2C(=O)CCCC(=O)O)cc1Cl` (stereo not drawn) [Example 21], the concentration for half-maximal inhibition (IC50) in data set [1] is 180 nM.

`Fc1ccc(CNC(=S)N2CCc3c([nH]c4ccccc34)[C@H]2c2ccc3c(c2)OCO3)cc1` [Example 35, (1R)-benzo[1,3]dioxol-5-yl-1,3,4,9-tetrahydro-β-carboline-2-carbothioic acid 4-fluorobenzylamide] displayed a melting point of 137 to 139 °C. The 50% inhibitory concentration (IC50) in data set [1] is 122 nM.

In the case of `O=C(C=C1CCCCC1)N1CCc2c([nH]c3ccccc23)[C@H]1c1ccc2c(c1)OCO2` [Example 16], the melting point fell in the range of 116 to 118 °C. The concentration for half-maximal inhibition (IC50) in data set [1] amounted to 209 nM.

Compound `O=C(NC(=S)N1CCc2c([nH]c3ccccc23)C1c1ccc2c(c1)OCO2)c1ccccc1` (stereo not drawn) [Example 38] gave a melting point of 207 to 208 °C. Also, the half-maximal inhibitory concentration (IC50) in data set [1] turned out to be 379 nM.

Regarding `COC(=O)N1CCc2c([nH]c3ccccc23)C1c1ccccc1` (stereo not drawn) [Example 19], the IC50 in data set [1] was 1 nM.

As to `O=C(OCc1ccccc1)N1CCc2c([nH]c3ccccc23)[C@H]1c1ccc2c(c1)OCO2` [Example 15b, (1R)-1-benzo[1,3]dioxol-5-yl-1,3,4,9-tetrahydro-β-carboline-2-carboxylic acid benzyl ester], the IC50 in data set [1] is 9 nM.

With `O=C(NC(=O)N1CCc2c([nH]c3ccccc23)[C@H]1c1ccc2c(c1)OCO2)c1ccccc1` [Example 12, N-((1R)-1-benzo[1,3]dioxol-5-yl-1,3,4,9-tetrahydro-β-carboline-2-carbonyl)benzamide], the IC50 in data set [1] worked out at 49 nM.

On to `O=C(Nc1cccc2ccccc12)N1CCc2c([nH]c3ccccc23)C1c1ccccc1` (stereo not drawn) [Example 6], for which the IC50 in data set [1] was 400 nM.

Turning to `S=C(NCc1ccc(Cl)cc1)N1CCc2c([nH]c3ccccc23)[C@H]1c1ccc2c(c1)OCO2` [Example 32, (1R)-benzo[1,3]dioxol-5-yl-1,3,4,9-tetrahydro-β-carboline-2-carbothioic acid 4-chlorobenzylamide], the IC50 in data set [1] came out at 51 nM.

With `O=C(OCc1ccccc1)N1CCc2c([nH]c3ccccc23)C1c1ccc2c(c1)OCO2` (stereo not drawn) [Example 15a, 1-benzo[1,3]dioxol-5-yl-1,3,4,9-tetrahydro-β-carboline-2-carboxylic acid benzyl ester], in data set [1], the IC50 turned out to be 17 nM.

On to `C[C@H](NC(=O)N1CCc2c([nH]c3ccccc23)[C@H]1c1ccc2c(c1)OCO2)c1ccccc1` [Example 10, (1R)-benzo[1,3]dioxol-5-yl-1,3,4,9-tetrahydro-β-carboline-2-carboxylic acid (1S)-(phenylethyl)amide], for which the melting point lay in the range of 120 to 121 °C. Also, the 50% inhibitory concentration (IC50) in data set [1] was 13 nM.

Compound `S=C(NCc1ccccc1Cl)N1CCc2c([nH]c3ccccc23)[C@H]1c1ccc2c(c1)OCO2` [Example 24, (1R)-benzo[1,3]dioxol-5-yl-1,3,4,9-tetrahydro-β-carboline-2-carbothioic acid 2-chlorobenzylamide] displayed a melting point of 123 to 128 °C. Further, in data set [1], the IC50 stood at 177 nM.

The compound `O=S(=O)(/C=C/c1ccccc1)N1CCc2c([nH]c3ccccc23)C1c1ccc2c(c1)OCO2` (stereo not drawn) [Example 41a, 1-benzo[1,3]dioxol-5-yl-2-(2-phenylethenesulfonyl)-2,3,4,9-tetrahydro-1H-β-carboline] returned a melting point of 191 to 192 °C. The 50% inhibitory concentration (IC50) in data set [1] was 675 nM.

With `S=C(NCc1cccc(Cl)c1)N1CCc2c([nH]c3ccccc23)[C@H]1c1ccc2c(c1)OCO2` [Example 36, (1R)-benzo[1,3]dioxol-5-yl-1,3,4,9-tetrahydro-β-carboline-2-carbothioic acid 3-chlorobenzylamide], the melting point lay within 189 to 191 °C. In addition, in data set [1], the IC50 was found to be 494 nM.

`Cc1ccc(CNC(=S)N2CCc3c([nH]c4ccccc34)[C@H]2c2ccc3c(c2)OCO3)cc1C` [Example 37, (1R)-benzo[1,3]dioxol-5-yl-1,3,4,9-tetrahydro-β-carboline-2-carbothioic acid 3,4-dimethylbenzylamide]: the melting point fell in the range of 138 to 142 °C. The concentration for half-maximal inhibition (IC50) in data set [1] worked out at 30 nM.

With `C[C@H](NC(=S)N1CCc2c([nH]c3ccccc23)[C@H]1c1ccc2c(c1)OCO2)c1ccccc1` [Example 27], the melting point lay in the range of 117 to 121 °C. The IC50 in data set [1] amounted to 196 nM.

Consider `FC(F)(F)c1ccccc1NC(=S)N1CCc2c([nH]c3ccccc23)[C@H]1c1ccc2c(c1)OCO2` [Example 31, (1R)-benzo[1,3]dioxol-5-yl-1,3,4,9-tetrahydro-β-carboline-2-carbothioic acid (2-trifluoromethylphenyl)amide], for which, in data set [1], the IC50 was 518 nM.

Compound `S=C(NCc1ccccc1)N1CCc2c([nH]c3ccccc23)[C@H]1c1ccc2c(c1)OCO2` [Example 2b, (1R)-1-benzo[1,3]dioxol-5-yl-1,3,4,9-tetrahydro-β-carboline-2-carbothioic acid benzylamide] showed a melting point of 205 to 207 °C. Besides, the IC50 in data set [1] was determined as 40 nM.

As for `O=C(NC1CCCCC1)N1CCc2c([nH]c3ccccc23)C1c1ccc2c(c1)OCO2` (stereo not drawn) [Example 7], in data set [1], the half-maximal inhibitory concentration (IC50) was 850 nM.

With `O=C(NCc1ccccc1)N1CCc2c([nH]c3ccccc23)C1c1ccccc1` (stereo not drawn) [Example 4], the IC50 in data set [1] came to 800 nM.

For `S=C(NCc1ccc(Cl)c(Cl)c1)N1CCc2c([nH]c3ccccc23)[C@H]1c1ccc2c(c1)OCO2` [Example 34, (1R)-benzo[1,3]dioxol-5-yl-1,3,4,9-tetrahydro-β-carboline-2-carbothioic acid 3,4-dichlorobenzylamide], in data set [1], the IC50 came out at 512 nM.

`S=C(NCc1ccc(Cl)cc1Cl)N1CCc2c([nH]c3ccccc23)[C@H]1c1ccc2c(c1)OCO2` [Example 25, (1R)-benzo[1,3]dioxol-5-yl-1,3,4,9-tetrahydro-β-carboline-2-carbothioic acid 2,4-dichlorobenzylamide] returned a melting point of 124 to 127 °C. Further, in data set [1], the IC50 was found to be 126 nM.

`FC(F)(F)c1cc(NC(=S)N2CCc3c([nH]c4ccccc34)[C@H]2c2ccc3c(c2)OCO3)ccc1Cl` [Example 30, (1R)-benzo[1,3]dioxol-5-yl-1,3,4,9-tetrahydro-β-carboline-2-carbothioic acid (4-chloro-3-trifuloromethylphenyl)amide]: the IC50 in data set [1] came to 83 nM.

Consider `O=C(Nc1ccccc1)C(=O)N1CCc2c([nH]c3ccccc23)[C@H]1c1ccc2c(c1)OCO2` [Example 1, (1R)-2-(1-benzo[1,3]dioxol-5-yl-1,3,4,9-tetrahydro-β-carbolin-2-yl)-2-oxo-N-phenylacetamide], for which the concentration for half-maximal inhibition (IC50) in data set [1] was determined as 167 nM.

Turning to `S=C(NCc1ccccc1)N1CCc2c([nH]c3ccccc23)C1c1ccc2c(c1)OCO2` (stereo not drawn) [Example 2a, 1-benzo[1,3]dioxol-5-yl-1,3,4,9-tetrahydro-β-caboline-2-carbothioic acid benzylamide], the melting point turned out to be 197 °C. Further, the half-inhibitory concentration (IC50) in data set [1] was 51 nM.

For `O=C(O)c1cccc(CNC(=S)N2CCc3c([nH]c4ccccc34)[C@H]2c2ccc3c(c2)OCO3)c1` [Example 29, (1R)-3-{[(1-benzo[1,3]dioxol-5-yl-1,3,4,9-tetrahydro-β-carboline-2-carbthiolyl)amino]methyl}benzoic acid], the melting point fell in the range of 218 to 220 °C. Moreover, the half-inhibitory concentration (IC50) in data set [1] amounted to 469 nM.

On to `O=C(O)c1ccc(CNC(=S)N2CCc3c([nH]c4ccccc34)[C@H]2c2ccc3c(c2)OCO3)cc1` [Example 28, (1R)-4-{[(1-benzo[1,3]dioxol-5-yl-1,3,4,9-tetrahydro-β-carboline-2-carbthiolyl)-amino]methyl}benzoic acid], for which the IC50 in data set [1] turned out to be 36 nM.

For the compound `Fc1cccc(CNC(=S)N2CCc3c([nH]c4ccccc34)[C@H]2c2ccc3c(c2)OCO3)c1` [Example 33, (1R)-benzo[1,3]dioxol-5-yl-1,3,4,9-tetrahydro-β-carboline-2-carbothioic acid 3-fluorobenzylamide], the melting point lay within 179 to 181 °C. The IC50 in data set [1] came to 75 nM.

In the case of `O=C(O)CCCC(=O)N1CCc2c([nH]c3ccccc23)C1c1ccc2c(c1)OCO2` (stereo not drawn) [Example 22], the half-maximal inhibitory concentration (IC50) in data set [1] turned out to be 150 nM.

Regarding `O=C(CC(=O)N1CCc2c([nH]c3ccccc23)[C@H]1c1ccc2c(c1)OCO2)c1ccccc1` [Example 17, (1R)-1-(1-benzo[1,3]dioxol-5-yl-1,3,4,9-tetrahydro-β-carbolin-2-yl)-3-phenylpropane-1,3-dione], the IC50 in data set [1] came to 29 nM.

In the case of `O=C(Nc1ccccc1)N1CCc2c([nH]c3ccccc23)C1c1ccccc1` (stereo not drawn) [Example 5], in data set [1], the 50% inhibitory concentration (IC50) turned out to be 400 nM.

Usually IC50 stands for the concentration that gives 50% inhibition. One may read the melting point as the temperature, or range, at which the solid turns liquid.
